Experimental data from PMC5413348, “Structure of Fam20A reveals a pseudokinase featuring a unique disulfide pattern and inverted ATP-binding” (eLife, 2017).
Substitutions are numbered along the chain they refer to. Read-outs that look alike come from different tables or passages of the source.

What was measured:
Fam20A [1] = biological target: T1, Fam20A (Homo sapiens, UniProt Q96MK3); test: thermal stability shift assay (SYPRO Orange), dTm vs concentration fit; type: binding; settings: 20 mM HEPES pH 7.5, 100 mM NaCl
T1 construct: residues 69-529; secreted from Hi5 insect cells; N-terminal 6xHis-SUMO tag removed by TEV protease; dimer in crystal, concentration-dependent dimer/oligomer in solution
T1 sequence (Q96MK3 69-529): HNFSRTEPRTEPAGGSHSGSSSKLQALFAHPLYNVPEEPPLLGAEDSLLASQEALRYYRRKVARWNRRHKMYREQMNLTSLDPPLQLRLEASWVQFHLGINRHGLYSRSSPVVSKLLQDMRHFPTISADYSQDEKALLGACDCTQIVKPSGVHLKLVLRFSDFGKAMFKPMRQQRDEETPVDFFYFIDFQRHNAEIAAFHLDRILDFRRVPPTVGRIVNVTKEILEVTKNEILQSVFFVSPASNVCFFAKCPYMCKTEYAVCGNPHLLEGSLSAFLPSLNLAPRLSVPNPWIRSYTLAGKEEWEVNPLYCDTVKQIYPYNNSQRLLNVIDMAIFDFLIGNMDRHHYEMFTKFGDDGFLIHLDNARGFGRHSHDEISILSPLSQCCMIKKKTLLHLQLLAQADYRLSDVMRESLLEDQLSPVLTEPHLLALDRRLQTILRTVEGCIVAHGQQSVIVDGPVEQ

Fam20A [2] = biological target: T2, Fam20A (Homo sapiens, UniProt Q96MK3, D430A); test: thermal stability shift assay (SYPRO Orange); type: binding; settings: 100 μM ATP; 20 mM HEPES pH 7.5, 100 mM NaCl
T2 construct: residues 69-529; secreted from Hi5 insect cells; N-terminal 6xHis-SUMO tag removed by TEV protease; dimer in crystal, concentration-dependent dimer/oligomer in solution
T2 sequence (Q96MK3 69-529 D430A): T1 sequence (Q96MK3 69-529) with D362A

Fam20A [3] = biological target: T3, Fam20A (Homo sapiens, UniProt Q96MK3, K223A); test: thermal stability shift assay (SYPRO Orange); type: binding; settings: 100 μM ATP; 20 mM HEPES pH 7.5, 100 mM NaCl
T3 construct: residues 69-529; secreted from Hi5 insect cells; N-terminal 6xHis-SUMO tag removed by TEV protease; dimer in crystal, concentration-dependent dimer/oligomer in solution
T3 sequence (Q96MK3 69-529 K223A): T1 sequence (Q96MK3 69-529) with K155A

Fam20A [4] = biological target: T1, Fam20A; test: thermal stability shift assay (SYPRO Orange); type: binding; settings: 10 μM nucleotide; no metal ions; 20 mM HEPES pH 7.5, 100 mM NaCl
[5] = biological target: the molecule itself; test: SEC; 1 mg or 100 µg purified Fam20A (both in 500 µl) on Superdex 200 increase 10/300 GL, 20 mM HEPES, pH 7.5, 100 mM NaCl

## Nc1ncnc2c1ncn2[C@@H]1O[C@H](COP(=O)(O)OP(=O)(O)O)[C@@H](O)[C@H]1O [ADP]
Fam20A [1]; no cations
  Kd: Fam20A prefers binding ATP over ADP (Figure 2D)

## Nc1ncnc2c1ncn2[C@@H]1O[C@H](COP(=O)(O)OP(=O)(O)OP(=O)(O)O)[C@@H](O)[C@H]1O [ATP]
Fam20A [2]
  Tm: with Ala has little effect on the ability of Fam20A to bind ATP
Fam20A [1]; no divalent cations, inverted orientation in crystal, read-out: Kd^app
  Kd: 3 µM
Fam20A [3]
  Tm: with Ala has little effect on the ability of Fam20A to bind ATP

## Nc1ccn([C@@H]2O[C@H](COP(=O)(O)OP(=O)(O)OP(=O)(O)O)[C@@H](O)[C@H]2O)c(=O)n1 [CTP]
Fam20A [4]
  ΔTm: Fam20A also binds other nucleoside triphosphates including GTP, CTP, and UTP

## Nc1nc2c(ncn2[C@@H]2O[C@H](COP(=O)(O)OP(=O)(O)OP(=O)(O)O)[C@@H](O)[C@H]2O)c(=O)[nH]1 [GTP]
Fam20A [4]
  ΔTm: Fam20A also binds other nucleoside triphosphates including GTP, CTP, and UTP

## O=c1ccn([C@@H]2O[C@H](COP(=O)(O)OP(=O)(O)OP(=O)(O)O)[C@@H](O)[C@H]2O)c(=O)[nH]1 [UTP]
Fam20A [4]
  ΔTm: Fam20A also binds other nucleoside triphosphates including GTP, CTP, and UTP

B1: Human Fam20A residues 69–529 (domain or fragment, UniProt Q96MK3 69-529, looked up)
chain: T1 sequence (Q96MK3 69-529)
notes: Fam20A, human, residues 69-529, secreted from a modified pI-secSUMOstar vector; the 6xHis-SUMO tag was removed by TEV protease; The only purified Fam20A construct that the methods describe; also called untagged Fam20A; purified Fam20A; source: Hi5 insect cells (baculovirus), conditioned medium, purified (Ni-NTA, Resource Q, Superdex 200); not shown: 6xHis, N-terminal, cleaved; SUMO, N-terminal, …
[5]
  binding result: binds
